Results: PubChem BioAssay (NCI)
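Five concentrations, 48 hours, 96-well plates. GI50: concentration for 50% inhibition of growth. TGI is the concentration that stops growth completely.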

Tests used:
Assay in all cases: DTP human tumour cell line panel, 48 h
COLO 205 colon = test system: COLO 205 colon
HCT-15 colon = test system: HCT-15 colon
LOX IMVI melanoma = test system: LOX IMVI melanoma
OVCAR-3 ovarian = test system: OVCAR-3 ovarian
RPMI-8226 leukemia = test system: RPMI-8226 leukemia
SF-295 CNS = test system: SF-295 CNS
CAKI-1 renal = test system: CAKI-1 renal
MCF7 breast = test system: MCF7 breast
MDA-MB-231 breast = test system: MDA-MB-231 breast
NCI/ADR-RES ovarian = test system: NCI/ADR-RES ovarian

Structure (SMILES) | TGI (COLO 205 colon) [µM] | TGI (HCT-15 colon) [µM] | TGI (LOX IMVI melanoma) [µM] | TGI (OVCAR-3 ovarian) [µM] | TGI (RPMI-8226 leukemia) [µM] | TGI (SF-295 CNS) [µM] | TGI (CAKI-1 renal) [µM] | GI50 (CAKI-1 renal) [µM] | GI50 (COLO 205 colon) [µM] | GI50 (HCT-15 colon) [µM] | GI50 (LOX IMVI melanoma) [µM] | GI50 (MCF7 breast) [µM] | TGI (MCF7 breast) [µM] | GI50 (MDA-MB-231 breast) [µM] | TGI (MDA-MB-231 breast) [µM] | GI50 (NCI/ADR-RES ovarian) [µM] | TGI (NCI/ADR-RES ovarian) [µM] | GI50 (OVCAR-3 ovarian) [µM] | GI50 (RPMI-8226 leukemia) [µM] | GI50 (SF-295 CNS) [µM]
CC1OC(n2cc(C(F)(F)F)c(=O)[nH]c2=O)C=CC1=O (configuration not stated) | 35.2 | 47 | 33 | 31.9 | 37.4 | 81.5 |  |  |  |  |  |  |  |  |  |  |  |  |  | 
c1ccc(C2=NOC3C4CCC(C4)C23)cc1 (configuration not stated) | > 100 | > 100 |  | > 100 | > 100 | > 100 | > 100 |  |  |  |  |  |  |  |  |  |  |  |  | 
O=C(NC1CC1)c1c(O)[nH]c(=S)[nH]c1=O | > 100 | > 100 | > 100 | > 100 | > 100 | > 100 | > 100 |  |  |  |  |  |  |  |  |  |  |  |  | 
Cn1[nH]cc2ccc3nc4ccccc4c(=O)c3c21 | 92.6 | 97.4 | 46.5 | > 100 | 67.6 | > 96.3 | 86.5 |  |  |  |  |  |  |  |  |  |  |  |  | 
COc1ccc(CN2C(=O)[C@@H]3Cc4c(OC)c(C)c(OC)c(OC)c4[C@H](/C2=C\c2cc(OC)c(OC)c(C)c2OC)N3C(=O)OC(C)C)cc1 | > 100 |  | > 100 | > 100 | > 100 | > 100 | > 100 |  |  |  |  |  |  |  |  |  |  |  |  | 
Cc1ccc2c(c1)-c1c3c(nn1C)-c1ccccc1SC3O2 (configuration not stated) | > 100 |  | > 100 | > 100 | > 100 | > 100 |  |  |  |  |  |  |  |  |  |  |  |  |  | 
COC(=O)c1c(O)ccc(O)c1C(C(C)=O)C(C)=O | > 100 | > 100 | > 100 | > 100 | > 100 | > 100 | > 100 |  |  |  |  |  |  |  |  |  |  |  |  | 
O=C(/C=C/c1ccc(Cl)c(Cl)c1)c1ccccc1Cl | 30.6 | 9.97 | 27.7 | 23 | > 29.1 | 26.9 | 24.2 |  |  |  |  |  |  |  |  |  |  |  |  | 
C[P+]1(Cc2ccccc2)CCCC1 | > 100 | > 100 | > 100 | > 100 | > 100 | > 100 |  |  |  |  |  |  |  |  |  |  |  |  |  | 
COc1ccc(Cn2cc(COc3cc(/C=C/C(=O)c4cc(OC)c(OC)c(OC)c4)ccc3OC)nn2)cc1 | > 100 | > 100 | > 100 | 6.71 | 29.6 |  | > 100 | 5.68 | 4.36 | 2.76 | 3.22 | 3.15 | > 100 | 4.62 | > 100 | 3.49 | > 100 | 2.62 | 2.58 | 
Cc1cccc(C)c1NC(=O)CCC(=O)NC(N)=NC#N | > 100 | > 100 | > 100 | > 100 | > 100 | > 100 | > 100 |  |  |  |  |  |  |  |  |  |  |  |  | 
O=C(/C=C/c1ccccc1)c1cccc2ccccc12 | 18.2 | 13.4 | 4.69 | 4.71 | 5.86 |  | 6.62 | 2.11 | 5.51 | 3.2 | 1.6 | 3.07 | 11.1 | 4.16 | 18.3 | 3.27 | 19.6 | 2.01 | 1.93 | 
CC(=O)OC1CCC2OOC1O2 (configuration not stated) | > 100 | > 100 | > 100 | > 100 | > 100 | > 100 | > 100 |  |  |  |  |  |  |  |  |  |  |  |  | 
CN(C)NC(=O)/C(=C/c1ccc(Cl)cc1)NC(=O)c1ccccc1 | > 100 | > 100 | > 100 | > 100 | > 100 | > 100 | > 100 |  |  |  |  |  |  |  |  |  |  |  |  | 
Cn1ncc(C#N)c1-c1ccc2c(c1)CN([C@H](CN)Cc1cccc(F)c1)C2=O | 21 | > 100 | > 100 | > 90.4 | 18.3 | 24.9 |  |  | 1.85 | 15.9 | 20.3 | 0.812 | 25.4 | 20.9 | > 100 | > 100 | > 100 | 10 | 2.34 | 0.503
C=C1C(=O)O[C@H](c2ccoc2)C[C@@H]1[C@@]1(C)CCCC2(C)C(=O)OCC21 (some centres not stated) | > 100 | > 100 | > 100 | > 100 | > 100 | > 100 | > 100 |  |  |  |  |  |  |  |  |  |  |  |  | 
O=C(Nc1ccncc1)C(=O)c1cn(S(=O)(=O)c2cccc(Cl)c2)c2ccccc12 | 70.3 | > 100 | > 100 | 23.4 |  | 37.1 | 39.9 | 3.38 | 24.8 | 3.24 | 4.72 | 3.63 | > 100 | 10.6 | 43.9 | 2.86 | > 100 | 4.12 |  | 2.92
O=c1nc2sc3ccccc3c(=O)n2[nH]1 | > 100 | > 100 | > 100 | > 100 | > 100 | > 100 | > 100 |  |  |  |  |  |  |  |  |  |  |  |  | 
C=C1C(=O)O[C@H]2[C@H]1CC/C(COC(=O)c1cccnc1N)=C\CC[C@@]1(C)O[C@@H]21 | 3.68 | 9.79 | 14 | 2.88 | 2.54 | 16 |  |  | 1.77 | 2.34 | 3.18 | 0.553 | 14.6 | 2.32 | 6.9 | 4.56 | 39.9 | 1.04 | 0.365 | 4.15
N#C/C(=C\c1c(O)cc(O)cc1O)C(N)=O | > 100 | > 100 | > 100 | > 100 | > 100 | > 100 | > 100 |  |  |  |  |  |  |  |  |  |  |  |  | 
Cc1ccccc1NC(=O)/C(=N\NC(N)=S)C(C#N)c1ccccc1 (configuration not stated) | > 100 | > 100 | > 100 | > 100 | > 100 | > 100 |  |  |  |  |  |  |  |  |  |  |  |  |  | 
COc1cccc(Nc2ncnc3cc(NC(=O)CCl)ccc23)c1 |  | 1.62 |  | 2.22 |  | 3.19 | 2.31 | 1.06 |  | 0.353 |  | 0.789 | 3.19 | 1.27 | 2.6 |  |  | 0.768 |  | 1.68
